Legend:
Format in all cases: cell-based
[1] = system: PANC-1 human pancreatic cell line; assay: Antiproliferative MTT assay, PANC-1 cells; conditions: additional 48 hour exposure
Protocol: (§1) Extracts and compounds were analyzed as to their effects on proliferation of A549 human adenocarcinoma, PANC-1 human pancreatic and P388 murine leukemia cell lines. P388 and NCI/ADR cells were obtained from Dr. R. Camalier, National Cancer Institute, Bethesda, Md., and A549 and PANC-1 cells were obtained from American Type Culture Collection, Rockville, Md. All cell lines were maintained in Roswell Park Memorial Institute (RPMI) medium 1640 supplemented with 10% fetal bovine sernm. All cell lines are cultured in plastic tissue culture flasks and kept in an incubator at 37° C. in humidified air containing 5% CO2. Prior to testing, antibiotic-free stock cultures of each of the cell lines were subcultured to […] by dilution in fresh growth medium at 2 to 3 day intervals.
(§2) To assess the antiproliferative effects of extracts and compounds against the P388 cell line, 200 μl cultures (96-well tissue culture plates, Nunc, Denmark) are established at 1×10^5 cells/ml in drug-free medium or medium containing the test agent at 10.0, 1.0, 0.10 and 0.010 μg/ml. Solvent for all dilutions ethanol. All experimental cultures are initiated in medium containing gentamycin su fate (50 μg/ml; Schering Corporation, Kenilworth, N.J.). After 48-h exposures, P388 cells are enumerated using 3-[4,5-dimethylthiazol-2-yl]-2,5-diphenyltetrazolium bromide (MTT) as described below (M. C. Alley et al., 1988, Cancer Res. 48:589.
(§3) Similar procedures are utilized for A549 and PANC-1 cells which require an additional 48 hour exposure prior to MTT addition. Results are expressed as percent inhibition compared to the negative (no drug) control. Positive drug controls are included to monitor drug sensitivity of each of the cell lines. These include varying dilutions of 5-fluorouracil and adriamycin.
(§4) To quantitate the effects of pure compounds on cell proliferation and resulting IC50 values, 75 μl of warm growth media containing 5 mg/ml MTT is added to each well, cultures returned to the incubator, and left undisturbed for 90 minutes. […]

[2] = system: P388 murine leukemia cell line; assay: Antiproliferative MTT assay, P388 cells; conditions: Mus musculus, 48-h exposure, read-out: Activity (IC50) P-388
Protocol: as §1, §2
(§5) To quantitate the effects of pure compounds on cell proliferation and resulting IC50 values, 75 μl of warm growth media containing 5 mg/ml MTT is added to each well, cultures returned to the incubator, and left undisturbed for 90 minutes. To spectrophotometrically quantitate formation of reduced formazan, plates are centrifuged (900×g, 5 minutes), culture fluids removed by aspiration, and 200 μl of acidified isopropanol (2 ml concentrated HCl/liter isopropanol) added per well. The absorbance of the resulting solutions is measured at 570 nm with a plate reader (TECAN Spectra II Plate Reader, TECAN U.S., Research Triangle Park, NC). […]

[3] = system: A549 human adenocarcinoma cell line; assay: Antiproliferative MTT assay, A549 cells; conditions: additional 48 hour exposure
Protocol: as §1, §2, §3, §4

[4] = system: NCI/ADR cells; assay: Antiproliferative MTT assay, NCI/ADR cells; conditions: Homo sapiens, NCI/ADR-RES
Protocol: as §1, §5

Structure (SMILES): CSC1=CC(=O)C(Br)=CC12C=CNC1=C2C2=NCCc3cn(C)c(c32)C1=O (stereo not drawn) [Discorhabdin U]
- IC50 [1]: 0.069 µg/mL
- IC50 [2]: 0.17 µg/mL
- IC50 [3]: 0.34 µg/mL
- IC50 [4]: 0.22 µg/mL

Structure (SMILES): CSC1=CC(=O)C(Br)=CC12C=CNC1=C2c2nccc3cn(C)c(c23)C1=O (stereo not drawn) [Discorhabdin T]
- IC50 [1]: 0.7 µg/mL
- IC50 [2]: > 5 µg/mL
- IC50 [3]: > 5 µg/mL
- IC50 [4]: > 5 µg/mL

Structure (SMILES): CSC1=CC(=O)C(Br)=CC12CCNC1=C2c2nccc3cn(C)c(c23)C1=O (stereo not drawn) [Discorhabdin S]
- IC50 [1]: 2.6 µg/mL
- IC50 [2]: 3.08 µg/mL
- IC50 [3]: > 5 µg/mL
- IC50 [4]: > 5 µg/mL
